US10953017B2, “Treatment of neurodegenerative diseases, causation of memory enhancement, and assay for screening compounds for such” (Southern Research Institute, priority 2009, dated 2021)

Each compound was assayed on SH-5YSY cells (assay: Blasticidin sensitivity of SH-5YSY cells). Settings: not given.
Type: cell-based, human
Text: SH-5YSY human neuroblastoma cell line was obtained from the American Tissue Culture collection (ATCC). The cells were expanded and frozen for long term storage. A commercially available expression vector containing the NF-kB promoter enhancer region driving the firefly lucipherase gene expression (see FIG. 1) was obtained. This plasmid was designed for transient expression studies and was devoid of any antibiotic-resistance conferring gene. A second plasmid containing the gene conferring resistance to blasticidin was also used. A dual transfection approach to obtain stable cell lines was employed. Prior to transfection, blasticidin sensitivity of the cell line was performed (See FIG. 2). It was determined that SH-5YSY cells were sensitive to the antibiotic toxicity and that 3 μg/ml caused total cell death (FIG. 2). After expanding and purifying adequate quantities of these plasmids, SH-5YSY cells were co-transfected with the above two plasmids and the clonal selection of the transfected cells in the presence of blasticidin proceeded. […] The optimal conditions for this assay to be carried out in a high throughput setting has been determined. Initially, the optimal number of cells needed was assessed. […] This cell line allows growing large scale quantities of cells fairly easily.

Row | Compound | concentration causing total cell death
1 | CN(CC[C@H](N)CC(=O)N[C@H]1C=C[C@H](n2ccc(N)nc2=O)O[C@@H]1C(=O)O)C(=N)N [blasticidin] | 3 µg/mL

What follows are compounds tested on I-kB and NF-kB p65 (assay: Effect on I-kB and NF-kB p65 in cytoplasm and nucleus (FIG. 14)). Settings: FIG. 14 A.
Type: cell-based
Text: A) I-kB was not affected by CMPD exposure while it was reduced by TNF. B) CMPDs increased cytoplasmic NF-kB p65. C) CMPDs increased nuclear localization of NF-kB p65. D) The sum of CMPD effects on P65 in the cytoplasm and in the nucleus.

Row | Compound | I-kB
2 | TNF-α [reference compound] | reduced

Each compound was assayed on NF-kB (assay: NF-kB promoter-driven firefly luciferase reporter assay in SH-5YSY clone C1). Settings: 0.625 up to 40 ng/ml.
Type: cell-based, human
Text: SH-5YSY human neuroblastoma cell line was obtained from the American Tissue Culture collection (ATCC). The cells were expanded and frozen for long term storage. A commercially available expression vector containing the NF-kB promoter enhancer region driving the firefly lucipherase gene expression (see FIG. 1) was obtained. This plasmid was designed for transient expression studies and was devoid of any antibiotic-resistance conferring gene. A second plasmid containing the gene conferring resistance to blasticidin was also used. A dual transfection approach to obtain stable cell lines was employed. Prior to transfection, blasticidin sensitivity of the cell line was performed (See FIG. 2). It was determined that SH-5YSY cells were sensitive to the antibiotic toxicity and that 3 μg/ml caused total cell death (FIG. 2). After expanding and purifying adequate quantities of these plasmids, SH-5YSY cells were co-transfected with the above two plasmids and the clonal selection of the transfected cells in the presence of blasticidin proceeded. Several clones were identified that were both resistant to blasticidin and expressed the firefly luciferase upon exposure to TNF-α, □ a known inducer of NF-kB (See FIG. 3). After several assessments, a clone, C1, which expressed high levels of stimulated-luciferase expression and maintained it over time (see FIG. 3) was identified. To date, this clone has been in culture for over 37 passages without significant decline of the gene of interest induction. The optimal conditions for this assay to be carried out in a high throughput setting has been determined. Initially, the optimal number of cells needed was assessed. In FIG. 4 it is shown the effect of using a range of cells from 10,000 to 40,000. […] The assays has have been implemented using a similar cell density for HTS analysis without excessive problems. This cell line allows growing large scale quantities of cells fairly easily.
Successively, the optimal time of incubation and media requirements were assessed. […] These conditions are relatively affordable in HTS settings. Finally, since during robotic handling the plates containing the cells spend a significant amount of time outside the incubator and since phenol red could interfere with the reagents in the luciferase activity assay kit, the effect of using a phenol red free HEPES-buffered media was assessed. As shown in FIG. 5 there is a very little effect of phenol red free, HEPES-buffered media on the assay response and dynamic range. Therefore, the assessment is that it is possible to run this assay using these more forgiving media. Since the compounds contained in the most commonly used libraries are dissolved in DMSO, the effect of DMSO on both luciferase expression in response to TNF-α and C1 clone survival during assay simulations was characterized. The effect of increasing concentration of DMSO ranging from 0.05% through 0.5% on TNF-α induction of luciferase (black line and black scale) is shown in FIG. 6. Also the effect of DMSO on baseline expression of luciferase in the C1 clone is shown in FIG. 6 (gray line and gray scale). In FIG. 7, it is shown the effect of DMSO on cell survival in the same conditions described in FIG. 6. In these experimental settings cells, settled for 24 hours, and then were incubated for an additional 24 hours with DMSO at the indicated concentrations. At the end of the incubation phase cell viability was assessed using the commercially available kit Cell Titer Glo™ following the manufacturer instructions ([…]). […] Finally, the effect of different concentrations of TNF-α was studied in the clone C1.
Essential to development of an assay for high throughput screening is the assessment of Z′ values. This statistical parameter assesses the possibility that data obtained in a single well are statistically significant. In general, assays can generate negative and positive Z′ values. Negative Z′ values indicate a very unpredictable assay. […]

Row | Compound | luciferase expression in C1 cells
3 | TNF-α [reference compound] | linear increase

Same assay, conditions: Homo sapiens; SH-5YSY clone C1, NF-kB luciferase reporter

Row | Compound | IC50
4 | Oc1ccc2ccccc2c1C1NN=C(c2ccccc2)S1 (stereo not drawn) [AB00093094] | 0.788 µM
5 | O=C1/C(=C\c2ccco2)Sc2ccccc21 [AB00083422] | 3650 µM
6 | Cc1ccc(/C=C2/SC(=S)N(CCC(=O)Nc3ccc(O)cc3)C2=O)cc1 [AB00089877] | 1310 µM
7 | CC(C)(C)c1ccc(-c2csc(N)n2)cc1 [AB00095939] | 0.133 µM
8 | CCC(=O)NC(c1ccccc1Cl)c1ccc2cccnc2c1O (stereo not drawn) [AB00100961] | 3.97 µM
9 | COc1cc(C)c(S(=O)(=O)Nc2ccc(-c3nc4ccc(C)cc4s3)cc2)c(C)c1C [AB00012207] | 0.155 µM
10 | COc1ccc(-c2coc3cc(OC)cc(O)c3c2=O)cc1 [AB00052939] | 1.73 µM
11 | Clc1ccc(C2NN=C(c3ccccc3)S2)cc1 (stereo not drawn) [AB00093093] | 4.06 µM
12 | Cc1ccc2nc(-c3ccc(NS(=O)(=O)c4ccccc4OC(F)(F)F)cc3)sc2c1 [AB00003451] | 0.156 µM
13 | COc1ccc(-c2noc(-c3cccc(OC)c3)n2)cc1 [AB00093467] | 0.082 µM
14 | Clc1ccc(-c2nnc(-c3ccccc3Cl)o2)cc1 [AB00084000] | 0.062 µM
15 | Oc1ccccc1C1NN=C(c2ccccc2)S1 (stereo not drawn) [AB00092734] | 0.382 µM
16 | Cc1ccc2nc(-c3ccc(NS(=O)(=O)c4ccc(F)c(Cl)c4)cc3)sc2c1 [AB00011625] | 0.111 µM
17 | Fc1ccc(-c2cn3ccsc3n2)cc1 [AB00093742] | 0.382 µM
18 | O=C1/C(=C\c2ccc(O)cc2)Sc2ccccc21 [AB00083765] | 3.72 µM
19 | S=C(c1ccc(-c2ccc(Cl)cc2)o1)N1CCOCC1 [AB00092070] | 0.775 µM

Row | Compound | IC50
20 | COc1ccccc1C1CCN(C(=O)NCCc2ccccc2)CC1 [AB00013805] | 0.067 µM
21 | Cc1ccc(-c2csc(Nc3ccccc3)n2)cc1 [AB00079697] | 0.142 µM
22 | S=C(c1ccc(-c2ccc(Cl)c(Cl)c2)o1)N1CCOCC1 [AB00091724] | 5.19 µM
23 | S=C(c1ccc(-c2cccc(Cl)c2)o1)N1CCOCC1 [AB00092117] | 3.4 µM
24 | COc1cccc(-c2nnc(-c3ccccc3NS(=O)(=O)c3ccc(NC(C)=O)cc3)o2)c1 [AB00027137] | 0.13 µM
25 | Brc1cccc(-c2cn3ccsc3n2)c1 [AB00093745] | 0.251 µM
26 | Cc1ccc(-c2csc(Nc3ccc(C(=O)O)cc3)n2)cc1C [AB00097765] | 0.062 µM
27 | Nc1nc(-c2ccc(-c3ccccc3)cc2)cs1 [AB00074195] | 0.122 µM
28 | CCC(=O)NC(c1ccc(C)cc1)c1ccc2cccnc2c1O (stereo not drawn) [AB00101018] | 3.17 µM
29 | COC(=O)c1sc2nc(-c3ccccc3)ccc2c1N [AB00079098] | 0.067 µM
30 | O=c1[nH]c(/C=C/c2ccc(O)cc2)nc2ccccc12 [AB00097657] | 0.064 µM
31 | O=C(/C=C/Nc1cc(Cl)ccc1O)c1ccccc1 [AB00087011] | 0.213 µM
32 | C=C(C)CN(CC)C(=O)Nc1ccc(-c2ccccc2)cc1 [AB00022459] | 0.065 µM
33 | COc1ccccc1-c1nc(-c2ccccc2Cl)no1 [AB00093511] | 0.079 µM
34 | COc1ccccc1-c1nc(-c2ccc(C)cc2)no1 [AB00093558] | 0.1 µM

Results, then the compound that gave them:

Row | IC50 | Compound
35 | 0.18 µM | O=C(Nc1ccc(F)cc1)N1CCc2ccccc21 [AB00105762]
36 | 146 µM | O=C(CCN1C(=O)/C(=C\C=C\c2ccccc2)SC1=S)Nc1cc(Cl)ccc1O [AB00120582]
37 | 0.155 µM | Cc1ccc2nc(-c3ccc(NC(=O)CCN4C(=O)c5ccccc5C4=O)cc3)sc2c1 [AB00547004]
38 | 2.41 µM | Clc1c(CSc2nc3ccccc3o2)nc2sccn12 [AB00428616]
39 | 0.393 µM | Cc1ccc2nc(-c3ccc(NC(=O)COC(=O)c4cncc(Br)c4)cc3)sc2c1 [AB00542926]
40 | 0.968 µM | COc1ccc(-c2cc(-c3ccccc3O)[nH]n2)cc1 [AB00461411]
41 | 12.6 µM | c1ccc(CSCc2cn3ccsc3n2)cc1 [AB00421150]
42 | 0.579 µM | Cc1ccccc1-c1cc(-c2ccccc2O)n[nH]1 [AB00101695]
43 | 1.4 µM | COCCNc1nc(-c2cc3ccccc3o2)cs1 [AB00546194]
44 | 0.213 µM | O=C(/C=C\Nc1cc(Cl)ccc1O)c1ccc2c(c1)OCO2 [AB00101723]
45 | 0.114 µM | O=C(Nc1ccc2c(c1)OCCO2)Nc1ccc2c(c1)OCO2 [AB00616088]
46 | 0.337 µM | O=C(O)c1ccc(-c2nnc(-c3ccccc3Cl)o2)cc1 [AB00101507]
47 | 0.966 µM | c1ccc2oc(-c3csc(N4CCOCC4)n3)cc2c1 [AB00613917]
48 | 0.104 µM | CC(=O)CSc1nc2cc3c(cc2cc1C#N)OCCO3 [AB00614173]
49 | 0.235 µM | COc1ccc(C(=O)/C=C(\C)Nc2ccccc2O)cc1 [AB00102118]
50 | 0.545 µM | O=C(CCN1C(=O)/C(=C\C=C\c2ccccc2)SC1=S)Nc1ccc(C(=O)O)cc1 [AB00121550]

Row | IC50 | Compound
51 | 0.144 µM | COc1ccc(-c2csc(Nc3ccc(N(C)C)cc3)n2)cc1 [AB00101290]
52 | 0.159 µM | CN(Cc1cnc2nc(N)nc(N)c2c1)c1ccc(C(=O)N[C@@H](CCC(=O)O)C(=O)O)cc1 [AB00171904]
53 | 0.345 µM | CCOC(=O)CC[C@H](NC(=O)c1ccc(NCc2cnc3nc(N)nc(N)c3c2C)cc1)C(=O)OCC [AB00174102]
54 | 0.65 µM | COc1ccc(-c2cn3c4c(sc3n2)CCCC4)cc1 [AB00315863]
55 | 0.328 µM | Cc1nnc(SCC(=O)Nc2ccc(-c3nc4ccccc4s3)cc2)s1 [AB00317535]
56 | 0.094 µM | Brc1ccc(-c2cn3ccccc3n2)s1 [AB00528862]
57 | 0.639 µM | Oc1ccccc1-c1cc(-c2ccc3c(c2)OCCO3)[nH]n1 [AB00440877]
58 | 22.7 µM | O=c1c(-c2ccc3c(c2)OCCO3)coc2cc(O)cc(O)c12 [AB00390364]
59 | 3.7 µM | CCC(=O)NC(c1cccc([N+](=O)[O-])c1)c1ccc2cccnc2c1O (stereo not drawn) [AB00101133]
60 | 0.361 µM | Cc1ccc(NC(=O)N2CCc3ccccc32)cc1C [AB00616066]
61 | 0.598 µM | C=CCNc1nc(-c2cc3ccccc3o2)cs1 [AB00546606]
62 | 0.123 µM | COc1cc(NCc2cnc3nc(N)nc(N)c3c2C)cc(C(F)(F)F)c1 [AB00443206]
63 | 0.697 µM | COc1ccc(NC(=O)N2CCc3ccccc32)cc1 [AB00329861]
64 | 0.125 µM | Fc1ccc(-c2nc3n(n2)Cc2ccccc2-3)cc1 [AB00371839]
65 | 5.98 µM | Cc1ccc(/C=C2\Sc3ccccc3C2=O)s1 [AB00534272]
66 | 4.52 µM | CC(C)Oc1cc(O)c2c(=O)c(-c3ccc(O)cc3)coc2c1 [AB00431689]
